Results from PubChem BioAssay AID720547 (The Scripps Research Institute Molecular Screening Center, 2013).
Active and inactive are the calls of the source.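 How the source made its calls: active means compound flagged as a likely artifact in this counterscreen, with IC50 of 10 µM or lower; inactive means IC50 above 10 µM.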

Tested on: HEK293 Gal4-VP16 luciferase reporter counterscreen, luminescence
Experiment: VP16-driven transactivation reporter suppression potency – cell-based, luminescence, HEK293, counter-screen for COUP-TFII inhibitor project, dose response (AID 720547);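 further: potency for lowering the luciferase signal driven by Gal4-VP16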

SMILES	IC50
N#CC(C#N)=C(Nc1ccc(F)cc1)SCc1cccc(Br)c1	> 85.4 µM (inactive)
Cc1ccc(Cl)cc1S(=O)(=O)N1CCC(C(=O)NC2CCN(Cc3ccccc3)CC2)CC1	> 85.4 µM (inactive)
COc1ccc(CCNc2ncnc3sc(C)cc23)cc1OC	> 28.5 µM (inactive)
Fc1ccc(NC(=S)N2CCCN(c3ccc(C(F)(F)F)cn3)CC2)c(F)c1	> 85.4 µM (inactive)
O=S(=O)(NCC1CCCO1)c1ccc(-c2ccc(S(=O)(=O)NCC3CCCO3)cc2)cc1 (stereo not given)	> 85.4 µM (inactive)
N=c1c2c(n(Cc3ccc(Cl)cc3)c3c1CCC3)CCC2	89 µM (inactive)
CCC(O)C1CCN(C(=O)c2cc(COc3ccc4ncccc4c3)on2)CC1 (stereo not given)	> 85.4 µM (inactive)
Cc1cc(C(=O)NC2CCCc3c2cnn3-c2ccc(C)c(C)c2)n(C)n1 (stereo not given)	> 85.4 µM (inactive)
Cc1nc2ccccc2n1Cc1ccc(Cl)cc1	> 85.4 µM (inactive)
CCOC(=O)N1CCN(C(=O)CSCC(=O)Nc2nc(-c3ccc(-c4ccccc4)cc3)cs2)CC1	> 28.4 µM (inactive)
C[C@@H]1C[C@@H]([C@H](O)CC2CC(=O)NC(=O)C2)C(=O)[C@@H](C)C1	> 85.4 µM (inactive)
C[n+]1c2n(c3ccccc31)N=C(c1ccc(-c3ccccc3)cc1)CS2	> 28.5 µM (inactive)
Cc1ccc(OCCN2CCN(c3ncnc4sc(C)c(C)c34)CC2)cc1	> 85.4 µM (inactive)
CCN1/C(=C/c2ccc3cc(C)ccc3[n+]2CC)Sc2ccccc21	22 µM (inactive)
Cc1cc(C)c(S(=O)(=O)NCc2ccncc2)c(C)c1	> 85.4 µM (inactive)
O=C(/C=C/c1ccc([N+](=O)[O-])cc1)c1ccccc(=O)c1O	13.2 µM (inactive)
COc1ccc(C(=O)C2CCN(c3ncnc4sccc34)CC2)cc1	> 28.4 µM (inactive)
CCOC(=O)N1CCC(NC(=O)C2CCCN(Cc3nc(-c4ccc(CC)cc4)oc3C)C2)CC1 (stereo not given)	80.1 µM (inactive)

SMILES	IC50
CC(=O)c1c(C)[nH]c(C(=O)COc2cc(C)ccc2C(C)C)c1C	> 85.4 µM (inactive)
N=c1ccn(CC(=O)c2ccc(-c3ccccc3)cc2)cc1	> 85.4 µM (inactive)
CC(C)(C)c1ccc(C2CC2C(=O)N/N=C\c2ccc[nH]2)cc1 (stereo not given)	> 85.4 µM (inactive)
Cc1nn(C)c(C(=O)NCc2ccc(Cl)cc2)c1Cl	> 85.4 µM (inactive)
Cc1ccc(F)cc1NC(=O)Cc1nn(C)c(=O)c2ccccc12	> 85.4 µM (inactive)
CCOC(=O)N1CCC(Nc2ncnc3c2cnn3-c2ccc(C)cc2C)CC1	> 85.4 µM (inactive)
COc1ccc(NS(=O)(=O)c2cccc(NC(=O)c3ccc(Cl)nc3)c2)cc1	73.5 µM (inactive)
Cc1cc(C)c(O)c(C(=O)CC2CC(=O)NC(=O)C2)c1	> 85.4 µM (inactive)
CN(C)c1cc[n+](CC(=O)c2ccc(-c3ccccc3)cc2)cc1	> 85.4 µM (inactive)
CC1=CC(=Cc2sc3ccccc3[n+]2C)C=C(C)O1	84.1 µM (inactive)
CC(C)c1ccc(CN2CCN(C(=O)CSc3nnnn3C3CC3)CC2)cc1	> 85.4 µM (inactive)
Cc1nnsc1NC(=O)OCc1ccc(C(C)(C)C)cc1	> 85.4 µM (inactive)
C=CCC1(CC=C)CCCN1C(=O)c1cc(COc2ccc(-n3cncn3)cc2)on1	> 85.4 µM (inactive)
Cc1cc(S(=O)(=O)NCc2ccncc2)c(C)cc1Br	> 85.4 µM (inactive)
O=c1[nH]c(O)c(N=Nc2ccc3c(c2)OCCO3)c(=O)[nH]1	40.4 µM (inactive)
CC(=O)c1c(C)[nH]c(C(=O)OCCCCN2C(=O)c3ccccc3C2=O)c1C	63.7 µM (inactive)
c1ccc2c(c1)CCN(c1ncnc3c1[nH]c1ccccc13)C2	53.8 µM (inactive)
